One may read the IC50 as the point on the concentration scale where inhibition reaches its midpoint. A lower IC50 goes with inhibition by little substance.

This note sets out measurements from US12448359B2, “Compounds with immunomodulatory activity and therapeutic uses thereof” (Purdue Research Foundation, priority 2020, dated 2025).

This test addresses PD-1/PD-L1 interaction (Homo sapiens (Human), UniProt Q9NZQ7). Briefly: PD1/PD-L1 HTRF assay (Cisbio kit), inhibition of PD-1/PD-L1 interaction. Type of test: binding. To be noted: for IC50 / IC50 value: HTRF, inhibition of PD-1/PD-L1 interaction, 4PL fit; for inhibition to PD-1/PD-L1 interaction (in words): HTRF assay. On the procedure: Briefly, 2 μL of the compound, 4 μL from a 25 nM Tagl-PD-L1 protein solution and 4 μL from a 250 nM Tag2-PD1 protein were added into a Cisbio's HTRF 96-well low volume white plate. Then, the plate was incubated for 15 minutes at room temperature. Next, 10 μL from pre-mixed anti-tag detection reagents (5 μL from 1X anti-Tagl-Eu^3+ and 5 μL from 1X anti-Tag2-XL665) were added and the sealed plate was incubated for 2 hours at room temperature. Finally, the plate sealer was removed, and measurements were taken using a HTRF® compatible reader. This protocol used 12 different concentrations of each compound where the maximum and minimum assay concentrations are 10,000 nM and 0.001 nM respectively.
To calculate ΔF/ΔFmax, first the HTRF ratio is calculated as follows;
A multiplication factor of 10000 factor was used to not deal with decimal values that improves data accuracy during calculation. The AR ratio indicating “specific signal” of the compound disrupting the PD-1/PD-L1 interaction was calculated by subtracting background HTRF ratio (negative DMSO control in our work) from each compound (sample) HTRF ratio as follows; ΔR=HTRF ratio (sample)−HTRF ratio (background)
Next, data normalization was done to minimize variation in values on different days, different plate reader instruments, or if the assay was done by different individuals. The normalization was done with respect to the background HTRF ratio and was calculated as follows;
Finally, the ΔF/ΔFmax ratio was calculated to enable comparison of values between multiple experiments.
[formula] wherein ΔF max is taken as the ΔF of the positive DMSO control in the assay.
The IC50 value for PD-1/PD-L1 inhibition was determined by analyzing the log of the concentration—response curves to fit a sigmoid curve with four-parameter logistic (4PL) regression using the GraphPad Prism Software version 8.3.0 for Windows, GraphPad Software, La Jolla California USA, www.graphpad.com. Following equation defines the regression curve.
[formula] wherein X=Log of concentration, Y=Response ΔF/ΔFmax, Top and Bottom=Plateaus in same units as Y, LogIC50=Same log units as X, HillSlope=Slope factor or Hill Slope, Unitless. Using the above equation, LogIC50, is calculated to obtain the IC50 value for each compound. The HTRF_IC50_Data.xlsx data file with all replicates is provided as a Supporting File for use in GraphPad Prism Software to calculate IC50 values.
Background: Time-resolved FRET reads energy transfer from a long-lived donor to a nearby acceptor.

Chain of PD-1/PD-L1 interaction (Q9NZQ7 19-238): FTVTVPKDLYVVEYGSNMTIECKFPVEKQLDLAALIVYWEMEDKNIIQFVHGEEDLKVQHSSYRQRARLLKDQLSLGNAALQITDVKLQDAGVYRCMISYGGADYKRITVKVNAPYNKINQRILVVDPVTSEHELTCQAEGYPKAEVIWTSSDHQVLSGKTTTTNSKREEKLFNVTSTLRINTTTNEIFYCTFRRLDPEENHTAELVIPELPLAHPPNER

In the case of `COc1cc(OCc2cccc(-c3ccc4c(c3)OCCO4)c2C)cc(OC)c1CN[C@H](CO)C(=O)O` [Compound 4b], the IC50 stood at 340 nM.
`COc1cc(OCc2cccc(-c3ccccc3)c2C)cc(OC)c1CNC(CC(F)(F)F)c1ccccc1` (stereo not shown) [Compound 4c, N-(2,6-dimethoxy-4-((2-methyl-[1,1′-biphenyl]-3-yl)methoxy)benzyl)-3,3,3-trifluoro-1-phenylpropan-1-amine]: the “inhibition to PD-1/PD-L1 interaction (in words)” value (“inhibition” for short) is listed as “no/poor inhibition” and the IC50 value entry is given as “no inhibition”.
Consider `C#C[C@]1(O)CC[C@H]2[C@@H]3[C@H](C)CC4=CC(=O)CCC4[C@H]3CC[C@@]21C` (stereo partly drawn) [Compound 4d, (7R,8R,9S,13S,14S,17R)-17-ethynyl-17-hydroxy-7,13-dimethyl-1,2,6,7,8,9,10,11,12,13,14,15,16,17-tetradecahydro-3H-cyclopenta[a]phenanthren-3-one], for which the “inhibition” value was “no/poor inhibition” and the IC50 value result is recorded as “no inhibition”.
For `COc1cc(OCc2cccc(-c3ccccc3)c2C)cc(OC)c1CN1CCC[C@H](C(=O)O)C1` [Compound 4e, (S)-1-(2,6-dimethoxy-4-((2-methyl-[1,1′-biphenyl]-3-yl)methoxy)benzyl)piperidine-3-carboxylic acid], the “inhibition” value is “no/poor inhibition” and half-maximal inhibition (IC50) was put at 1260 nM.
